# Legend:
# Format in all cases: cell-based
# Conditions in all cases: human keratinocytes + LPS, 48 hours, mean ± standard deviation
# IL-8 = assay: Production of IL-8 in LPS-stimulated human keratinocyte culture (sandwich ELISA)
# Protocol: (§1) the effect of formulation 1 (described in example 1) was evaluated In this study, in the synthesis of inflammatory mediators: IL-1, IL-6, IL-8, IL-10, IL-12, prostaglandin E2 (PGE2), Leukotriene B4 (LBT4), interferon gamma (IFN-gamma) and tumor necrosis factor alpha (TNF-alpha) in a culture of human keratinocytes in basal condition and stimulated with bacterial lipopolysaccharides (LPS), to simulate the inflammatory response.
# (§2) Human keratinocytes (Cascade Biologics, USA) were sown in 75 cm^2 bottles (Corning Inc, USA), cultured and expanded in a wet incubator to 37° C. in the presence of CO2, using a specific culture medium. When reaching confluence, cells were seeded in 24 well plates (Nunc, USA) for further incubation with non-toxic dilutions of formulation 1, described in example 1, and for evaluation of proposed mediators.
# (§3) The evaluated concentrations were 0.0002; 0.0001; and 0.000025 and 0.00005% (w/v).
# (§4) Cells were kept in touch with dilutions of the formulations and LPS (Sigma, USA) for 48 hours for further collection of the supernatant and the cell lysate. As a positive control of production of mediators, the cells were kept in touch only with LPS (Sigma, USA) in the same amount administered along with the formulations (samples), and as a basal control, cells alone were used, without the presence of LPS or formulations.
# (§5) Quantification of inflammatory mediators (IL-1, IL-6, IL-8, IL-10, IL-12, IFN-gamma and TNF-alpha) was performed using a kit of enzyme-linked immunosorbent assay (sandwich ELISA) commercially available. And the quantification of PGE2 and LBT4 mediators was performed by an ELISA competitive binding assay. The results were expressed in pg/mL, calculated from the values of references obtained with a standard curve constructed with known concentrations of the mediators of interest (table 2).
# IL-1 = assay: Production of IL-1 in LPS-stimulated human keratinocyte culture (sandwich ELISA)
# Protocol: as §1, §2, §3, §4, §5
# LTB4 = assay: Production of LTB4 in LPS-stimulated human keratinocyte culture (ELISA competitive binding assay)
# Protocol: as §1, §2, §3, §4, §5
# TNF-alpha = assay: Production of TNF-alpha in LPS-stimulated human keratinocyte culture (sandwich ELISA)
# Protocol: as §1, §2, §4, §5
# IL-12 = assay: Production of IL-12 in LPS-stimulated human keratinocyte culture (sandwich ELISA)
# Protocol: as §1, §2, §3, §4, §5
# IL-10 = assay: Production of IL-10 in LPS-stimulated human keratinocyte culture (sandwich ELISA)
# Protocol: as §1, §2, §3, §4, §5
SMILES,Production of inflammatory mediators: IL-8 (IL-8; Dilution: 0.00005 (% w/v)) [pg/mL],Production of inflammatory mediators: IL-8 (IL-8; Dilution: 0.0002 (% w/v)) [pg/mL],Production of inflammatory mediators: IL-1 (IL-1; Dilution: 0.00005 (% w/v)) [pg/mL],Production of inflammatory mediators: IL-1 (IL-1; Dilution: 0.0002 (% w/v)) [pg/mL],Production of inflammatory mediators: LTB4 (LTB4; Dilution: 0.00005 (% w/v)) [pg/mL],Production of inflammatory mediators: LTB4 (LTB4; Dilution: 0.0002 (% w/v)) [pg/mL],Production of inflammatory mediators: TNF-alpha (TNF-alpha; Dilution: 0.0002 (% w/v)) [pg/mL],Production of inflammatory mediators: IL-12 (IL-12; Dilution: 0.00005 (% w/v)) [pg/mL],Production of inflammatory mediators: IL-12 (IL-12; Dilution: 0.0002 (% w/v)) [pg/mL],Production of inflammatory mediators: IL-10 (IL-10; Dilution: 0.00005 (% w/v)) [pg/mL],Production of inflammatory mediators: IL-10 (IL-10; Dilution: 0.0002 (% w/v)) [pg/mL],Production of inflammatory mediators: TNF-alpha (TNF-alpha; Dilution: 0.00005 (% w/v)) [pg/mL]
CN(Cc1cnc2nc(N)nc(N)c2n1)c1ccc(C(=O)N[C@@H](CCC(=O)O)C(=O)O)cc1 [Methotrexate],39.07 ± 7.53,19.39 ± 8.00,291.69 ± 34.42,187.35 ± 26.22,1282.15 ± 174.81,543.82 ± 78.75,4.82 ± 0.32,1042.00 ± 53.03,1004.50 ± 70.71,29.08 ± 1.36,23.11 ± 1.08,
"CC(C)=CCC[C@@](C)(O)[C@H]1CC=C(C)CC1 [Alpha bisabolol, 1-methyl-4-(1,5-dimethyl-1-hydroxy-4(5)-hexenyl)-1-cyclohexene]",64.23 ± 13.00,28.90 ± 9.58,313.43 ± 33.30,354.74 ± 37.03,1083.83 ± 115.59,648.55 ± 11.09,8.00 ± 1.61,979.50 ± 35.35,954.50 ± 70.71,27.15 ± 2.99,28.30 ± 1.36,6.64 ± 0.32

# Reference: patent US20200206231A1, “TOPICAL PHARMACEUTICAL COMPOSITION, METHOD FOR PRODUCING THE TOPICAL PHARMACEUTICAL COMPOSITION, USE OF TOPICAL PHARMACEUTICAL COMPOSITION AND METHOD FOR TOPICAL TREATMENT OF PSORIASIS, ATOPIC DERMATITIS OR CHRONIC ECZEMA” (BIOLAB SANUS FARMACÊUTICA LTDA., priority 2012, published 2020)
